Here are results for 5 molecules from patent US10493027B2, “Chemically stable compositions of a pharmaceutical active agent in a multi- chambered delivery system for mucosal delivery” (MUCODEL PHARMA LLC, priority 2014, dated 2019).

In brackets after ≈: the same amount, converted by molar mass. Where a name gives a salt, the structure may show the parent alone. Read-outs that look alike come from different tables or passages of the source.

The conditions of data set [1]: cited from earlier work.
The conditions of data set [2]: cited from earlier work. The source holds these as a separate data set.
The nature of data set [3]: Nalbuphine bioavailability study (Example 14).
For data set [4] the following is noted: orally delivered, mice; cited from earlier work.
The conditions of data set [5]: cited from earlier work. The source holds these as a separate data set.
The conditions of data set [6]: cited from earlier work. This is another data set of the same source.
The conditions of data set [7]: cited from earlier work. This is another data set of the same source.

As to `Oc1ccc2c3c1O[C@H]1[C@@H](O)CC[C@@]4(O)[C@@H](C2)N(CC2CCC2)CC[C@]314` [Nalbuphine], the t1/2 in data set [1] (i.v., 20 mg) was 3.7 h. Besides, in data set [1] (p.o., 60 mg), the t1/2 was 4.65 h and the tmax is 0.777 h. Besides, in data set [2] (Example 14 text), the solubility in water result is reported as “about 35 mg/g”. In addition, in data set [3] (intranasal), the “peak plasma achieved faster than intraoral administration” value was around 1000%. In data set [3] (intranasal, equivalent dose), the “maximum drug plasma concentration higher than conventional oral formulation” value was around 500%.

Turning to `C=CCN1CC[C@]23c4c5ccc(O)c4O[C@H]2C(=O)CC[C@@]3(O)[C@H]1C5` [Naloxone HCl, naloxone hydrochloride], the solubility in water in data set [2] (US EPA EPI Suite reference) is given as 73 mg/mL; in data set [2] (room temperature) it was “greater than 70 mg/g”.

As to `C=CCN1CC[C@]23c4c5ccc(O)c4O[C@H]2C(=O)CC[C@@]3(O)[C@H]1C5` [Naloxone], the bioavailability in data set [4] is given as 1%. Moreover, the pKa result in data set [5] is given as “around 7.9”. In addition, in data set [6] (healthy subjects, doses 5 mg to 120 mg), the “mean absolute bioavailability of oral Naloxone” value was “less than or equal to 2%”. For the same molecule, the mean absolute bioavailability in data set [6] (oral PR tablets, 5 mg dose, based on AUCt) was 0.9%. In data set [2] (Example 5), the solubility in water is reported as 1.4 mg/mL (≈ 4.28 mM).

For `O=C1CC[C@@]2(O)[C@H]3Cc4ccc(O)c5c4[C@@]2(CCN3CC2CC2)[C@H]1O5` [Naltrexone], the figures for the “increase of permeation (factor)” value in data set [7] (pH of NTX increased from 6.8 to 7.5) and in data set [7] (pH of NTX increased from 6.8 to 8.5) were 1.6 and 4.4, respectively. Moreover, the permeation enhancement in data set [7] (with Brij 58, reconstituted human buccal mucosa) was 7.7.

With `Oc1ccc2c3c1O[C@H]1[C@@H](O)CC[C@@]4(O)[C@@H](C2)N(CC2CCC2)CC[C@]314` [nalbuphine hydrochloride], the “bioavailability when delivered orally” value in data set [1] (oral) was “approximately 12%”. Also, the bioavailability in data set [3] (human, plasma, other: intranasal, 16.8 mg) is above 200%.
